Where two headings read alike, the source gives them in different places. One block for each molecule: values may come before it.
Columns and labels:
[1] = test system: Galium (catchweed bedstraw, Galium aparine); test: Test A postemergence; format: in vivo; details: Galium, post-emergence, 240 h; for pest or weed control at 125 g/ha: 125 g ai/ha
Procedure, shortened: (§1)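 Compounds were formulated in a non-phytotoxic solvent mixture with surfactant and applied as a preemergence directed soil spray after seeding, or sprayed postemergence over plants 2 to 10 cm tall at the one- to two-leaf stage. Evaluation after about 10 d compared treated with untreated controls, using a scale from 0 (no effect) to 100 (complete control).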

[2] = test system: barnyardgrass (Echinochloa crus-galli); test: Test A postemergence; format: in vivo; details: Echinochloa crus-galli, post-emergence, 240 h; for pest or weed control at 125 g/ha: 125 g ai/ha
Procedure, shortened: as §1

[3] = test system: blackgrass (Alopecurus myosuroides); test: Test A postemergence; format: in vivo; details: Alopecurus myosuroides, post-emergence, 240 h; for pest or weed control at 125 g/ha: 125 g ai/ha
Procedure, shortened: as §1

corn (Zea mays) [4] = test: Test A postemergence; format: in vivo; details: Zea mays, post-emergence, 240 h; for Corn plant response rating (crop injury, 0 = no effect, 100 = complete kill) at 125 g/ha: postemergence, visual injury after approximately 10 d
Procedure, shortened: as §1

[5] = test system: ragweed (common ragweed, Ambrosia elatior); test: Test A postemergence; format: in vivo; details: Ambrosia artemisiifolia, post-emergence, 240 h; for pest or weed control at 125 g/ha: 125 g ai/ha
Procedure, shortened: as §1

[6] = test system: wheat (Triticum aestivum); test: Test A postemergence; format: in vivo; details: Triticum aestivum, post-emergence, 240 h; for plant injury at 125 g/ha: 125 g ai/ha
Procedure, shortened: as §1

[7] = test system: barnyardgrass (Echinochloa crus-galli); test: Test G Post-Emergence Protocol; format: in vivo; details: Echinochloa crus-galli, post-emergence, 312 h
Procedure, shortened: (§2)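 Values are percent visual injury at 13 days after treatment (0 none, 100 total). Treatment was a post-emergence spray at 15.625, 62.5 or 250 g/ha on 8-day-old pot plants kept at 24/16 °C.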

corn (Zea mays) [8] = test: Test G Post-Emergence Protocol; format: in vivo; details: Zea mays, post-emergence, 312 h
Procedure, shortened: as §2

[9] = test system: giant foxtail (Setaria faberi); test: Test G Post-Emergence Protocol; format: in vivo; details: Setaria faberi, post-emergence, 312 h
Procedure, shortened: as §2

[10] = test system: ivy-leaved morning glory (Ipomoea hederacea); test: Test G Post-Emergence Protocol; format: in vivo; details: Ipomoea, post-emergence, 312 h
Procedure, shortened: as §2

[11] = test system: redroot pigweed (Amaranthus retroflexus); test: Test G Post-Emergence Protocol; format: in vivo; details: Amaranthus retroflexus, post-emergence, 312 h
Procedure, shortened: as §2

[12] = test system: velvetleaf (Abutilon theophrasti); test: Test G Post-Emergence Protocol; format: in vivo; details: Abutilon theophrasti, post-emergence, 312 h
Procedure, shortened: as §2

[13] = postemergence, visual injury after approximately 10 d, 0 to 100 scale (0 no effect, 100 complete control), read-out: Plant response rating, Galium
[14] = postemergence, visual injury after approximately 10 d, 0 to 100 scale (0 no effect, 100 complete control), read-out: Plant response rating, Barnyardgrass
[15] = postemergence, visual injury after approximately 10 d, 0 to 100 scale (0 no effect, 100 complete control), read-out: Plant response rating, Blackgrass
[16] = 125 g ai/ha, 0 to 100 scale (0 no effect, 100 complete control)
[17] = postemergence, visual injury after approximately 10 d, 0 to 100 scale (0 no effect, 100 complete control), read-out: Plant response rating, Ragweed
[18] = postemergence, visual injury after approximately 10 d, 0 to 100 scale (0 no effect, 100 complete control), read-out: Plant response rating, Wheat

melting point: 146 to 150 °C
SMILES: O=C1NC[C@H](c2cc(C(F)(F)F)ccn2)[C@H]1C(=O)Nc1cccc(F)c1F (racemic) [Compound 1376]
pest or weed control at 125 g/ha ([1]; Postemergence, visual rating about 10 d after treatment, read-out: Galium plant response rating (0 to 100 scale)): 0% | pest or weed control at 500 g/ha ([1]; Postemergence, 500 g ai/ha, visual injury, 0 to 100 scale (0 no effect, 100 complete control), approx. 10 d, read-out: Plant response rating, Galium): 30% | pest or weed control at 125 g/ha ([2]; Postemergence, visual rating about 10 d after treatment, read-out: Barnyardgrass plant response rating (0 to 100 scale, 0 no effect, 100 complete control)): 90% | pest or weed control at 500 g/ha ([2]; Postemergence, 500 g ai/ha, visual injury, 0 to 100 scale (0 no effect, 100 complete control), approx. 10 d, read-out: Plant response rating, Barnyardgrass): 90% | pest or weed control at 125 g/ha ([3]; Postemergence, visual rating about 10 d after treatment, read-out: Blackgrass plant response rating (0 to 100 scale)): 20% | pest or weed control at 500 g/ha ([3]; Postemergence, 500 g ai/ha, visual injury, 0 to 100 scale (0 no effect, 100 complete control), approx. 10 d, read-out: Plant response rating, Blackgrass): 70% | plant injury at 125 g/ha (corn (Zea mays) [4]; 125 g ai/ha, Postemergence, visual rating about 10 d after treatment, read-out: Corn plant response rating (0 to 100 scale)): 0% | Corn plant response rating (crop injury, 0 = no effect, 100 = complete kill) at 500 g/ha (corn (Zea mays) [4]; Postemergence, 500 g ai/ha, visual injury, 0 to 100 scale (0 no effect, 100 complete control), approx. 10 d): 30% | pest or weed control at 125 g/ha ([5]; Postemergence, visual rating about 10 d after treatment, read-out: Ragweed plant response rating (0 to 100 scale)): 0% | pest or weed control at 500 g/ha ([5]; Postemergence, 500 g ai/ha, visual injury, 0 to 100 scale (0 no effect, 100 complete control), approx. 10 d, read-out: Plant response rating, Ragweed): 0% | plant injury at 125 g/ha ([6]; Postemergence, visual rating about 10 d after treatment, read-out: Wheat plant response rating (0 to 100 scale)): 0% | plant injury at 500 g/ha ([6]; Postemergence, 500 g ai/ha, visual injury, 0 to 100 scale (0 no effect, 100 complete control), approx. 10 d, read-out: Plant response rating, Wheat): 60%

SMILES: CN1C[C@@H](c2ccc(C(F)(F)F)cc2)[C@H](C(=O)Nc2ccc(C(F)(F)F)nc2Cl)C1=O (racemic) [Compound 1542]
pest or weed control at 15.625 g/ha ([7]; 15.625 g ai/ha, evaluated after 13 days (100=total damage to plant; 0=no damage to plant), read-out: Barnyardgrass damage rating): 0% | pest or weed control at 62.5 g/ha ([7]; 62.5 g ai/ha, evaluated after 13 days, read-out: Barnyardgrass damage rating (100=total damage to plant; 0=no damage to plant)): 0% | pest or weed control at 250 g/ha ([7]; 250 g ai/ha, evaluated after 13 days, read-out: damage to plant, Barnyardgrass (100=total damage to plant; 0=no damage to plant)): 0% | plant injury at 15.625 g/ha (corn (Zea mays) [8]; 15.625 g ai/ha, evaluated after 13 days (100=total damage to plant; 0=no damage to plant), read-out: Corn damage rating): 0% | plant injury at 62.5 g/ha (corn (Zea mays) [8]; 62.5 g ai/ha, evaluated after 13 days, read-out: Corn damage rating (100=total damage to plant; 0=no damage to plant)): 0% | plant injury at 250 g/ha (corn (Zea mays) [8]; 250 g ai/ha, evaluated after 13 days, read-out: damage to plant, Corn (100=total damage to plant; 0=no damage to plant)): 0% | pest or weed control at 15.625 g/ha ([9]; 15.625 g ai/ha, evaluated after 13 days (100=total damage to plant; 0=no damage to plant), read-out: Foxtail, Giant damage rating): 0% | pest or weed control at 62.5 g/ha ([9]; 62.5 g ai/ha, evaluated after 13 days, read-out: Foxtail, Giant damage rating (100=total damage to plant; 0=no damage to plant)): 0% | pest or weed control at 250 g/ha ([9]; 250 g ai/ha, evaluated after 13 days, read-out: damage to plant, Foxtail, Giant (100=total damage to plant; 0=no damage to plant)): 0% | pest or weed control at 15.625 g/ha ([10]; 15.625 g ai/ha, evaluated after 13 days (100=total damage to plant; 0=no damage to plant), read-out: Morningglory, Ivy-leaved damage rating): 0% | pest or weed control at 62.5 g/ha ([10]; 62.5 g ai/ha, evaluated after 13 days, read-out: Morningglory, Ivy-leaved damage rating (100=total damage to plant; 0=no damage to plant)): 0% | pest or weed control at 250 g/ha ([10]; 250 g ai/ha, evaluated after 13 days, read-out: damage to plant, Morningglory, Ivy-leaved (100=total damage to plant; 0=no damage to plant)): 0% | pest or weed control at 15.625 g/ha ([11]; 15.625 g ai/ha, evaluated after 13 days (100=total damage to plant; 0=no damage to plant), read-out: Pigweed, Redroot damage rating): 0% | pest or weed control at 62.5 g/ha ([11]; 62.5 g ai/ha, evaluated after 13 days, read-out: Pigweed, Redroot damage rating (100=total damage to plant; 0=no damage to plant)): 0% | pest or weed control at 250 g/ha ([11]; 250 g ai/ha, evaluated after 13 days, read-out: damage to plant, Pigweed, Redroot (100=total damage to plant; 0=no damage to plant)): 0% | pest or weed control at 15.625 g/ha ([12]; 15.625 g ai/ha, evaluated after 13 days (100=total damage to plant; 0=no damage to plant), read-out: Velvetleaf damage rating): 0% | pest or weed control at 62.5 g/ha ([12]; 62.5 g ai/ha, evaluated after 13 days, read-out: Velvetleaf damage rating (100=total damage to plant; 0=no damage to plant)): 0% | pest or weed control at 250 g/ha ([12]; 250 g ai/ha, evaluated after 13 days, read-out: damage to plant, Velvetleaf (100=total damage to plant; 0=no damage to plant)): 0%

melting point: 135 to 139 °C
SMILES: CN1C[C@H](c2cc(F)cc(F)c2)[C@@H](C(=O)NC2CCc3ccccc32)C1=O (stereo partly drawn) [Compound 755]
pest or weed control at 125 g/ha [1, 13]: 0% | pest or weed control at 125 g/ha [2, 14]: 0% | pest or weed control at 125 g/ha [3, 15]: 0% | Corn plant response rating (crop injury, 0 = no effect, 100 = complete kill) at 125 g/ha (corn (Zea mays) [4]; [16]): 0% | pest or weed control at 125 g/ha [5, 17]: 0% | plant injury at 125 g/ha [6, 18]: 0%

melting point: 69.5 to 77 °C
SMILES: CN1C[C@H](c2nccs2)[C@@H](C(=O)Nc2ccccc2F)C1=O [Compound 773]
pest or weed control at 125 g/ha [1, 13]: 0% | pest or weed control at 125 g/ha [2, 14]: 0% | pest or weed control at 125 g/ha [3, 15]: 0% | Corn plant response rating (crop injury, 0 = no effect, 100 = complete kill) at 125 g/ha (corn (Zea mays) [4]; [16]): 0% | pest or weed control at 125 g/ha [5, 17]: 0% | plant injury at 125 g/ha [6, 18]: 0%
